From patent publication US6458585B1, “Cytokine-free culture of dendritic cells” (Nexell Therapeutics Inc., priority 1996, dated 2002)

B1: IL-4: interleukin-4, Genzyme; added to GM-CSF (protein, UniProt P05112 25-153, looked up)
Interleukin-4: HKCDITLQEIIKTLNSLTEQKTLCTELTVTDIFAASKNTTEKETFCRAATVLRQFYSHHEKDTRCLGATAQQFHRHKQLIRFLKRLDRNLWGLAGLNSCPVKEANQSTLENFLERLKTIMREKYSKCSS

Assays:
Format in all cases: cell-based, human
[1] = system: adherent PBMNC; assay: S100 immunohistochemistry of plastic adherent cells cultured with non-cytokine additives; settings: for percentages of S100+ cells: day 7, additive added to GM-CSF 50 ng/ml
Protocol: Immunocytochemical staining: PBS (phosphate buffered saline) was made by dissolving 5 PBS tablets into 1000 ml millipore water. Cytospin slides were soaked in PBS. […] Slides were rinsed with PBS one time. Non-specific binding sites were blocked by incubating with normal serum matching source of secondary antibody (i.e. if secondary antibody is biotinylated goat-anti-mouse, used normal goat serum) at room temp. for 15 min. in a humidified environment. Excess serum was shaken from slides and placed 100 ul of primary antibody on slide, making sure cells are covered with liquid and incubated in humidified environment, room temp, for one hour. Negative control slides were incubated with normal serum for this hour. Slides were rinsed 3 times with PBS. Slides were incubated with biotinylated antibody reactive against the primary antibody (i.e. if primary antibody is mouse-anti-human, use a biotinylated goat-anti-mouse antibody) for 1 hour in humidity. Slides were rinsed 3 times with PBS. Slides were incubated with streptavidin-peroxidase, 2 drops/slide, for 30 min. in humidity. Slides were rinsed 3 times with PBS.
Chromagen solution was made with 5 ml millipore water+2 drops of chromagen buffer+1 drop of concentrated chromagen+1 drop of substrate, and 4-5 drops were added to each slide. […] Slides were counterstained with hematoxylin for about 5 min, or until cell nuclei were stained purple. Cells were rinsed with tap water and allowed to air dry. Slides were covered with crystal mount and oven dried at 80 degrees for 15 min. Slides were allowed to cool, then coversliped with mounting medium.
(§1) Enrichment and Culture of Adherent Cells Using Polystyrene Tissue Culture Plates: PBMNC were resuspended in culture media (X-VIVO 15™+10% autologous serum) at 2×10^6 cells/ml. Cells were placed into 48 well polystyrene tissue culture plates […] and incubated for 2 hours in a 5% CO2, ambient O2, 37° C. humidified incubator. Non-adherent cells were removed from the plates then wells were rinsed with X-VIVO 15™ containing no serum. Cells remaining in the wells were adherent cells. These cells were cultured by adding 2 ml of X-VIVO 15™ to each well plus GM-CSF and IL-4 at final concentrations of 50 ng/ml and 1000 U/ml or the following: cAMP at 0.5 mM, dibutyryl cAMP at 0.1 mM, NaF at 0.25 mM, theophylline at 0.5 mM, PGE at 0.1 mM, Vitamin D3 at 2.5 uM, Vitamin E at 0.1%, Retinoic Acid at 10^−6 M, PMA at 1 pM, Linoleic Acid at 5 ug/ml, or Ca^++ Ionophore at 10 mM. Furthermore, cells were also cultured with the above non-cytokine additives plus GM-CSF at 50 ng/ml. Cells were cultured in a 5% CO2, ambient O2, 37° C. humidified incubator for 7 days.
(§2) Cytospin slide preparation, Wright-Geimsa and immunohistochemical staining of the cultured cells were conducted as described in Example 1 and 2 above. Mixed lymphocyte reactions (MLR's) were setup using T cells (responders) and dendritic cell enriched cultures (stimulators) from bulk PBMNC cultures, as described above in Example 1.
(§3) Results: In the set of experiments using plastic adherent cells grown in polystyrene tissue culture plates, a Day 0 analysis of the cells was not performed. However, these cultures were analyzed for the presence of DC on days 4 and 7. Analysis perfomed were cell counts, viability via propidium iodide, morphology under Wright-Geimsa staining, and immunohistochemical staining using an anti-S100 antibody.

[2] = system: adherent PBMNC; assay: DC morphology (Wright-Geimsa) of plastic adherent cells cultured with non-cytokine additives
Protocol: Cytofunnels were attached to microscope slides. 50,000 to 100,000 cells were removed from each culture and resuspended in approximately 100 to 200 ul of PBS-CMF. Slides were placed in the Cytospin® centrifuge and spun at 100 rpm for 4 min. Cytofunnels were removed from the slides and the slides were air dried for 1 minute. Ten drops of Wright-Geimsa stain were placed onto each slide and allowed to fix for 1 to 2 minutes. Ten drops of water were added to each slide and allowed to sit for 2 to 4 minutes. The slides were rinsed and air dried.
Reading of Cytospin Slides: Slides were read under phase contrast microscopy, 40× and 60× oil magnification. One hundred cells were identified and characterized morphologically as either dendritic cells or non-dendritic cells (lymphocytes and monocyte, or CD34+-derived cells in those cases). Digital images were taken using a color monitor and color video printer.
as §1, §2, §3

[3] = system: adherent PBMNC; assay: Cell counts and viability of plastic adherent cells cultured with non-cytokine additives in polystyrene plates; parameters: % VIABLE: concentration or dose not given beside the values; settings: for % VIABLE: propidium iodide
Protocol: Viability Determination: Prior to acquisition, 5 ul propidium iodide (PI) was added to each tube for use as a viability check. The cells were vortexed and acquired within 10 min of PI addition.
as §1, §3

| Molecule | % S100+ ([1]; Day 4, with GM-CSF present) [%] | % S100+ ([1]; Day 4, without GM-CSF) [%] | % S100+ ([1]; Day 7, with GM-CSF present) [%] | % S100+ ([1]; Day 7, without GM-CSF) [%] | % DC ([2]; Day 4, with GM-CSF present) [%] | % DC ([2]; Day 4, without GM-CSF) [%] | % DC ([2]; Day 7, with GM-CSF present) [%] | % DC ([2]; Day 7, without GM-CSF) [%] | TOTAL CELLS ([3]; Day 4, with GM-CSF present) [E + 05] | % VIABLE ([3]; Day 4, with GM-CSF present) [%] | TOTAL CELLS ([3]; Day 4, without GM-CSF) [E + 05] | % VIABLE ([3]; Day 4, without GM-CSF) [%] | TOTAL CELLS ([3]; Day 7, with GM-CSF present) [E + 05] | % VIABLE ([3]; Day 7, with GM-CSF present) [%] | TOTAL CELLS ([3]; Day 7, without GM-CSF) [E + 05] | % VIABLE ([3]; Day 7, without GM-CSF) [%] | percentages of S100+ cells [1] |
| --- | --- | --- | --- | --- | --- | --- | --- | --- | --- | --- | --- | --- | --- | --- | --- | --- | --- |
| Cc1c(C)c2c(c(C)c1O)CCC(C)(CCCC(C)CCCC(C)CCCC(C)C)O2 (mixture of isomers) [Vit E] | 26.00 | 19.00 | 19.00 | 11.00 | 4.50 | 2.50 | 6.00 | 3.00 | 1.38 | 97.48 | 1.64 | 78.65 | 1.05 | 94.21 | 1.75 | 71.91 | – |
| CNc1ccc2oc(CC3OC4(CCC3C)OC(C(C)C(=O)c3ccc[nH]3)C(C)CC4C)nc2c1C(=O)O (stereo not shown) [Ca + + Iono] | 20.00 | – | – | 29.00 | 9.50 | – | – | 6.00 | 1.66 | 96.23 | – | – | – | – | 1.54 | 84.02 | – |
| [F-].[Na+] [NaF, Sodium Fluoride] | 7.00 | 0.00 | 5.00 | 2.50 | 0.00 | 0.00 | 0.00 | 0.00 | 1.90 | 67.04 | 2.19 | 72.46 | 1.44 | 30.61 | 2.18 | 44.31 | – |
| CCCCC[C@H](O)/C=C/[C@H]1[C@H](O)CC(=O)[C@@H]1CCCCCCC(=O)O [PGE, Prostaglandin E1] | 6.00 | 0.00 | 26.50 | 5.00 | 5.00 | 3.00 | 5.50 | 0.00 | 2.35 | 92.40 | 2.54 | 71.62 | 1.84 | 60.29 | 2.91 | 59.78 | – |
| CCCCCCCCCCCCCC(=O)O[C@@H]1[C@@H](C)[C@@]2(O)[C@@H](C=C(CO)C[C@]3(O)C(=O)C(C)=C[C@@H]23)[C@@H]2C(C)(C)[C@]12OC(C)=O [PMA, Phorbol Myristate Acetate] | 20.00 | 4.00 | 26.50 | 6.50 | 4.50 | 1.00 | 0.00 | 1.00 | 1.45 | 97.60 | 1.64 | 77.17 | 1.04 | 95.15 | 1.51 | 82.20 | – |
| CC1=C(/C=C/C(C)=C/C=C/C(C)=C/C(=O)O)C(C)(C)CCC1 [Ret Acid] | 9.00 | 7.00 | 14.00 | 7.00 | 1.50 | 10.00 | 4.00 | 0.00 | 1.21 | 95.30 | 1.48 | 60.67 | – | 88.52 | 1.66 | 45.17 | – |
| C=C1CCC(O)CC1=CC=C1CCCC2(C)C1CCC2C(C)CCCC(C)C (stereo not shown) [Vit D3] | 8.00 | 5.50 | 39.00 | 16.00 | 3.00 | 1.50 | 5.00 | 0.50 | 1.95 | 95.86 | 2.37 | 76.06 | 1.64 | 67.44 | 1.82 | 75.13 | – |
| Nc1ncnc2c1ncn2[C@@H]1O[C@@H]2COP(=O)(O)O[C@H]2[C@H]1O [cAMP, Cyclic Adenosine Monophosphate] | 41.00 | 10.50 | 47.00 | 10.00 | 3.00 | 0.00 | 0.00 | 0.50 | 2.02 | 87.60 | 1.86 | 76.37 | 1.56 | 60.51 | 2.08 | 19.89 | greatest percentages of S100+ cells |
| B1 | – | – | – | – | – | – | – | – | – | – | – | – | – | – | – | – | greatest percentages of S100+ cells |
